US20080220056A1, “Treatment for liver disease” (UNIVERSITY OF SOUTHAMPTON, priority 2002, published 2008)
Marks after values point to notes of the source that are not given here.

Experiments:
[1] = test system: rat hepatic stellate cells; assay: Morphology and detachment of culture-activated rat hepatic stellate cells (light microscopy); format: cell-based
From the text: Rat hepatic stellate cells (HSCs) were isolated by pronase/collagenase perfusion and purified by isopycnic density centrifugation in Opti-prep™ (Nycomed, Amersham, England) and elutriation essentially as previously described (Bahr et al., Hepatology (1999) 29:839-848). Human hepatic stellate cells were isolated from discarded resected liver via a similar protocol (Trim et al., J. Biol. Chem., (2000) 275:6657-6663). The use of human liver tissue for scientific investigation was approved by the UK South and West Local Research Ethics Committee and was subject to patient consent.
It has been shown recently that liver myofibroblasts may contribute to liver fibrogenesis and that liver myofibroblasts may have the potential to contaminate passaged hepatic stellate cell cultures (Knittel et al., Gastronenterology, (1999) 117:1205-1221). In this study, only primary cultures of hepatic stellate cells were used, which were desmin and glial fibrillary acid protein positive (markers shown to be expressed in hepatic stellate cells, but not liver myofibroblasts—Knittel et al., supra).
Cells were treated with gliotoxin dissolved in DMSO vehicle (added to medium from a 2000-fold molar concentrated stock). Control cells received DMSO vehicle only (i.e., 0.05% vol/vol). All other additions to culture medium were made from concentrated stocks dissolved in DMSO or by direct addition to culture medium. Protein contents of wells were determined using the Lowry assay (Lowry et al., J. Biol. Chem., (1951)193: 265-275).
Culture activated rat (14 day) and human (24 day) hepatic stellate cells were treated with DMSO solvent control or 1.5 μMol/L gliotoxin. […] Hepatic stellate cells changed from a flattened fibroblastic phenotype with distinct cell-cell interfaces to a substratum detached, rounded, and blebbed morphology.

[2] = test system: rat hepatic stellate cells; assay: Trypan blue exclusion of treated rat hepatic stellate cells; format: cell-based; details: rat HSC; 1.5 μmol/L gliotoxin or 200 μmol/L chlorpromazine
rat hepatocytes = assay: DNA laddering in rat hepatocytes; format: cell-based; details: four hours; 50 μmol/L gliotoxin, 200 μmol/L chlorpromazine, 200 μmol/L methapyrilene, 10 ng/mL TNF-α with cycloheximide
Description: Hepatic stellate cells cultured in 35-mm diameter dishes (Greiner) were harvested, pelleted by centrifugation and DNA fragmentation determined as outlined elsewhere (Elsharkawy et al., Hepatology (1999) 30:761-769). Propidium Iodide Flow-Activated Cell Sorting Analysis Detached cells were pelleted by centrifugation, washed in PBS, and resuspended in HYPO buffer (0.1% wt/vol) Na3Citrate and 0.1% (wt/vol) Triton™ X-100 containing […] propidium iodide and incubated for 1 hour. The cells were then analyzed by fluorescence-activated cell sorter (FACS) with a Becton Dickinson (San Jose, Calif.) FACScan instrument using a 488 nm excitation wavelength with a band pass filter set at 530 nm. Attached cells were scraped in HYPO buffer after washing cells with PBS.
DNA laddering was also used to compare the effect of gliotoxin, chlorpromazine, methapyrilene and also the combination of TNF-α with cycloheximide on hepatocytes and hepatic stellate cells.

[3] = test system: carbon tetrachloride model of liver fibrosis; assay: Carbon tetrachloride (in vivo) model of liver fibrosis, weekly gliotoxin injection; parameters: species or system rat; details: for Liver α-sma staining (number of α-sma-positive cells) / Serum ALP / Serum ALT / Sirius red staining (mid intralobular μm): weekly gliotoxin injection 3 mg/kg i.p.
Description: Rats were randomly sorted into groups and treated with 2 mL CCl4:olive oil (1:1 [vol/vol])/kg body weight by intraperitoneal injection twice weekly to cause liver fibrosis. Control animals were treated with 1 mL olive oil/kg body weight by intraperitoneal injection. Gliotoxin was administered at up to 3 mg gliotoxin/kg body weight by intraperitoneal injection. Gliotoxin was dissolved in dimethyl sulfoxide (DMSO) as a vehicle, and control animals received DMSO alone.
At the required time, rats were killed by carbon dioxide asphyxiation and tissues removed for analysis. Serum was prepared and analyzed for alkaline phosphatase and alanine aminotransferase activities essentially as previously described. (Wright et al., Biochem. Pharmacol., (1992) 43:237-243) Histochemical staining of formalin-fixed liver sections with H&E, Sirius red, and immunochemical staining for α-smooth muscle actin were performed essentially as previously described (Iredale et al.,—1998—supra)

[4] = molecular target: T1, recombinant human caspase-3 (Homo sapiens, UniProt P42574); assay: Direct effect on recombinant caspase-3; format: biochemical; details: TIMP-1 285-2850 ng/ml, 1 hour preincubation
T1 construct: purchased Calbiochem
T1 sequence (P42574 29-175 limits assumed): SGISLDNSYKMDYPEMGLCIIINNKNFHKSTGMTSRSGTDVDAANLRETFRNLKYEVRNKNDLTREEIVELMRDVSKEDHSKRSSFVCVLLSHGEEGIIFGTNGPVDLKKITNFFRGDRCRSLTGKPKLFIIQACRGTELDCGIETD
T1 sequence (P42574 176-277 limits assumed): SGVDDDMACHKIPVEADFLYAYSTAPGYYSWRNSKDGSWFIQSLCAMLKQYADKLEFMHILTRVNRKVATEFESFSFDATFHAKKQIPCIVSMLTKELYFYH
Description: Apoptosis was quantified by a colorimetric assay for caspase-3 activity (Promega) according to the manufacturer's instructions.
To exclude a direct effect of TIMP-1 on caspase-3 activity, recombinant human caspase-3 (Calbiochem) was incubated with TIMP-1 in varying concentrations (285-2850 ng/ml) for 1 hour before caspase-3 substrate was added to the reaction.

hepatic stellate cells = assay: TUNEL staining of cycloheximide-treated hepatic stellate cells; format: cell-based; details: 50 μM cycloheximide 18 h; TIMP-1 100 ng/ml
Description: Hepatic stellate cells were cultured on glass chamber slides and then exposed to 50 μM cycloheximide for 18 h with and without TIMP-1 (100 ng/ml). Slides were then stained for DNA fragmentation characteristic of apoptosis by the TUNEL reaction as previously described (Iredale et al., J. Clin. Invest., (1998) 102, 538-549) with the modifications recently described to reduce false positively (Stahelin et al., Mol. Pathol., (1998) 51, 204-208). Each slide was then analyzed by a blinded observer who counted the number of TUNEL-positive apoptotic figures and the TUNEL-negative cells over 10 high power fields for each condition.
A further pathognomonic feature of apoptosis is the fragmentation of DNA into oligonucleosomal lengths (Evan et al., Cell (1992) 69: 119-128). Fragmented DNA can be identified by the TUNEL technique, which can therefore be used to further quantify the apoptotic response of hepatic stellate cells in the presence and absence of cycloheximide. To assess DNA fragmentation activated hepatic stellate cells were therefore induced to undergo apoptosis by cycloheximide treatment in the presence and absence of TIMP-1 and the number of TUNEL positive cells assessed. […] As a control cells which were treated with serum alone were analyzed. […]

Molecule | detachment from culture dish substratum ([1]; 1.5 μMol/L gliotoxin, within four hours) | morphologic alterations ([1]; culture activated (14 day) rat HSC, 1.5 μmol/L) | 0.1% (wt/vol) trypan blue exclusion (membrane integrity) [2] | cleavage of hepatocyte DNA to a nucleosomal ladder (rat hepatocytes) | liver serum enzymes caused by carbon tetrachloride treatment ([3]; gliotoxin administered during CCl4 treatment) | number of activated hepatic stellate cells and thickness of fibrotic bands ([3]; gliotoxin administered during the liver insult (CCl4)) | hepatotoxicity of long term administration ([3]; weekly gliotoxin) | Liver α-sma staining (number of α-sma-positive cells) ([3]; CCl4 twice weekly 4 weeks) | Serum ALP ([3]; CCl4 twice weekly 4 weeks) | Serum ALT ([3]; CCl4 twice weekly 4 weeks) | Sirius red staining (mid intralobular μm) ([3]; CCl4 twice weekly 4 weeks) | Liver α-sma staining (number of α-sma-positive cells) ([3]; no CCl4 (olive oil 4 weeks)) | Serum ALP ([3]; no CCl4 (olive oil 4 weeks)) | Serum ALT ([3]; no CCl4 (olive oil 4 weeks)) | Sirius red staining (mid intralobular μm) ([3]; no CCl4 (olive oil 4 weeks)) | direct effect on caspase-3 activity [4] | cells containing fragmented DNA (TUNEL) (hepatic stellate cells)
CN1C(=O)[C@]23CC4=CC=C[C@H](O)[C@H]4N2C(=O)[C@@]1(CO)SS3 [gliotoxin] | a majority of the hepatic stellate cells had detached | striking morphologic alterations within one hour | detached cells that excluded 0.1% (wt/vol) trypan blue | only hepatocytes treated with TNF-α and cycloheximide cleaved their DNA to a nucleosomal ladder | significantly reduces the levels of liver serum enzymes | significantly reduces the number of activated hepatic stellate cells and thickness of fibrotic bands | no evidence that long term administration of gliotoxin is itself hepatotoxic | 6 ± 1.2 | 429 ± 25^a μ/mL | 300 ± 111^b μ/mL | 4.6 ± 3.1^£ μm | 1.4 ± 1.38 | 249 ± 26 μ/mL | 89 ± 58 μ/mL | 0 μm |  | 
TIMP-1: recombinant tissue inhibitor of matrix metalloproteases 1 (Biogenesis) |  |  |  |  |  |  |  |  |  |  |  |  |  |  |  | did not reduce caspase-3 activity directly | significantly reduced numbers of cells containing fragmented DNA
